Measurements taken from PubChem BioAssay AID248 (DTP/NCI, 2004).
Several values for one entry are separate records, joined by “and”; a condition that tells them apart may be missing. Equal values may be shown once. Inconclusive results and toxic doses are left out. No stated cut-off is given here; in the data, active means T/C of 150% or more; inactive means T/C below 125%.

Tested on: L1210 leukemia ip in BDF1 mice, survival T/C
Assay: NCI In Vivo Anticancer Drug Screen. Data for tumor model L1210 Leukemia (intraperitoneal) in B6D2F1 (BDF1) mice
Details: endpoint: mean survival time, higher = longer survival
Method in brief: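 Mice bearing the transplanted tumor received compound or vehicle. Survival of the treated group was divided by that of the vehicle-treated control group to give the ratio.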

[1] = dose: 100.0 mg/kg/injection, schedule: Q01DX009 (ip), vehicle: saline with Tween-80
[2] = dose: 400.0 mg/kg/injection, schedule: Q01DX009 (ip), vehicle: saline with Tween-80
[3] = dose: 100.0 mg/kg/injection, schedule: Q04DX003 (ip), vehicle: saline
[4] = dose: 200.0 mg/kg/injection, schedule: Q04DX003 (ip), vehicle: saline
[5] = dose: 100.0 mg/kg/injection, schedule: Q04DX003 (ip), vehicle: saline with Tween-80
[6] = dose: 200.0 mg/kg/injection, schedule: Q04DX003 (ip), vehicle: saline with Tween-80
[7] = dose: 100.0 mg/kg/injection, schedule: Q04DX003 (ip), vehicle: Klucel (hydroxypropylcellulose) (HPC)
[8] = dose: 200.0 mg/kg/injection, schedule: Q04DX003 (ip), vehicle: Klucel (hydroxypropylcellulose) (HPC)
[9] = dose: 400.0 mg/kg/injection, schedule: Q04DX003 (ip), vehicle: Klucel (hydroxypropylcellulose) (HPC)
[10] = dose: 100.0 mg/kg/injection, schedule: Q01DX001 (ip), vehicle: saline
[11] = dose: 200.0 mg/kg/injection, schedule: Q01DX001 (ip), vehicle: saline
[12] = dose: 100.0 mg/kg/injection, schedule: Q01DX001 (ip), vehicle: saline with Tween-80
[13] = dose: 100.0 mg/kg/injection, schedule: Q01DX009 (ip), vehicle: Klucel (hydroxypropylcellulose) (HPC)
[14] = dose: 200.0 mg/kg/injection, schedule: Q01DX009 (ip), vehicle: Klucel (hydroxypropylcellulose) (HPC)
[15] = dose: 400.0 mg/kg/injection, schedule: Q01DX009 (ip), vehicle: Klucel (hydroxypropylcellulose) (HPC)

Measured: T/C

O=C(NCc1cnccn1)c1ccc([N+](=O)[O-])cc1
inactive: [1] 98 % of control | dose: 200.0 mg/kg/injection, schedule: Q01DX009 (ip), vehicle: saline with Tween-80 104 % of control | [2] 98 % of control

COC(=O)c1cc(C)[n+]([O-])cc1C(=O)OC
inactive: [3] 92 % of control | [4] 97 % of control | dose: 400.0 mg/kg/injection, schedule: Q04DX003 (ip), vehicle: saline 100 % of control

CCOc1ccc(Br)cc1C1N(Cc2ccc(N(CCCl)CCCl)cc2C)CCCN1Cc1ccc(N(CCCl)CCCl)cc1C
inactive: dose: 100.0 mg/kg/injection, schedule: Q01DX001 (ip), vehicle: carboxymethylcellulose (CMC) 106 % of control | dose: 200.0 mg/kg/injection, schedule: Q01DX001 (ip), vehicle: carboxymethylcellulose (CMC) 101 % of control | dose: 400.0 mg/kg/injection, schedule: Q01DX001 (ip), vehicle: carboxymethylcellulose (CMC) 108 % of control

CN(C)/N=C\c1cccnc1
inactive: [3] 112 % of control | [4] 86 % of control

COc1ccccc1/C=C/C(=O)c1ccccc1
inactive: [1] 89 % of control | [5] 98 % of control | [6] 94 % of control | [2] 89 % of control | dose: 400.0 mg/kg/injection, schedule: Q04DX003 (ip), vehicle: saline with Tween-80 96 % of control

NC1=NC2OC(CO)C(O)C2O1 (stereo unspecified)
inactive: dose: 100.0 mg/kg/injection, schedule: Q01DX009 (ip), vehicle: saline 104 % of control | [7] 100 % of control | dose: 200.0 mg/kg/injection, schedule: Q01DX009 (ip), vehicle: saline 95 % of control | [8] 95 % of control | dose: 400.0 mg/kg/injection, schedule: Q01DX009 (ip), vehicle: saline 101 % of control | [9] 97 % of control

CC1(C)C/C(=C\c2cccc(Cl)c2)C(=O)c2ccccc21
inactive: [7] 108 % of control | [8] 106 % of control | [9] 110 % of control

[N-]=[N+]=Nc1c(N=[N+]=[N-])c(NS(=O)(=O)c2ccccc2)c2ccccc2c1NS(=O)(=O)c1ccccc1
inactive: dose: 100.0 mg/kg/injection, schedule: Q04DX002 (ip), vehicle: saline with Tween-80 87 % of control | dose: 200.0 mg/kg/injection, schedule: Q04DX002 (ip), vehicle: saline with Tween-80 97 % of control | dose: 400.0 mg/kg/injection, schedule: Q04DX002 (ip), vehicle: saline with Tween-80 97 % of control

N#CSc1c[nH]c2ccccc12
inactive: dose: 50.0 mg/kg/injection, schedule: Q01DX009 (ip), vehicle: saline with Tween-80 96 % of control | [1] 101 % of control | [5] 104 % of control | [6] 95 % of control

Cc1ccc(S(=O)(=O)N=S(CCCl)CCCl)cc1
inactive: dose: 100.0 mg/kg/injection, schedule: Q04DX002 (ip), vehicle: saline 92 % of control | dose: 200.0 mg/kg/injection, schedule: Q04DX002 (ip), vehicle: saline 99 % of control | dose: 400.0 mg/kg/injection, schedule: Q04DX002 (ip), vehicle: saline 101 % of control

CCCC/C=C(/C)C1(CC)C(=O)NC(=O)NC1=O
inactive: dose: 75.0 mg/kg/injection, schedule: Q01DX001 (ip), vehicle: saline 100 % of control and 98 % of control | dose: 150.0 mg/kg/injection, schedule: Q01DX001 (ip), vehicle: saline 93 % of control and 102 % of control

CN(N)C(=S)c1ccc(Cl)cc1
inactive: dose: 50.0 mg/kg/injection, schedule: Q04DX003 (ip), vehicle: saline 102 % of control | [10] 95 % of control | [3] 100 % of control | [11] 93 % of control | [4] 96 % of control

Clc1nccc2n[nH]nc12
inactive: dose: 100.0 mg/kg/injection, schedule: Q01DX001 (ip), vehicle: other 94 % of control | dose: 100.0 mg/kg/injection, schedule: Q04DX003 (ip), vehicle: other 103 % of control | dose: 200.0 mg/kg/injection, schedule: Q01DX001 (ip), vehicle: other 91 % of control | dose: 200.0 mg/kg/injection, schedule: Q04DX003 (ip), vehicle: other 100 % of control | dose: 400.0 mg/kg/injection, schedule: Q01DX001 (ip), vehicle: other 103 % of control | dose: 400.0 mg/kg/injection, schedule: Q04DX003 (ip), vehicle: other 107 % of control

CCC(/C=C\C(C)C1CCC2C3C=CC45CC4CCC5(C)C3CCC12C)C(C)C (stereo unspecified)
inactive: [12] 96 % of control | dose: 200.0 mg/kg/injection, schedule: Q01DX001 (ip), vehicle: saline with Tween-80 89 % of control | dose: 400.0 mg/kg/injection, schedule: Q01DX001 (ip), vehicle: saline with Tween-80 86 % of control

COC(=O)N(C1CCCCC1)C1CCCCC1
inactive: [13] 97 % of control | [14] 96 % of control | [15] 100 % of control

CCc1ccc(-n2cnc3c(=O)[nH]c(N)nc32)cc1
inactive: dose: 25.0 mg/kg/injection, schedule: Q01DX001 (ip), vehicle: saline with Tween-80 86 % of control | dose: 50.0 mg/kg/injection, schedule: Q01DX001 (ip), vehicle: saline with Tween-80 88 % of control | [12] 91 % of control

O=C(c1ccccc1)c1ccc(O)cc1
inactive: [13] 93 % of control | [7] 103 % of control | [14] 93 % of control | [8] 100 % of control | [15] 100 % of control | [9] 103 % of control

NNC(=O)CNc1ccc(F)c(Cl)c1
inactive: dose: 25.0 mg/kg/injection, schedule: Q04DX002 (ip), vehicle: saline + alcohol 113 % of control | dose: 50.0 mg/kg/injection, schedule: Q04DX002 (ip), vehicle: saline + alcohol 95 % of control | dose: 100.0 mg/kg/injection, schedule: Q04DX002 (ip), vehicle: saline + alcohol 98 % of control and 123 % of control

CN(CCO)CC(O)Cn1cnc2c1c(=O)n(C)c(=O)n2C (stereo unspecified) (tested in a mixture with another compound)
inactive: [10] 108 % of control | [11] 112 % of control | dose: 400.0 mg/kg/injection, schedule: Q01DX001 (ip), vehicle: saline 104 % of control

Oc1ccc[n+](CCCl)c1
inactive: dose: 6.25 mg/kg/injection, schedule: Q01DX015 (ip), vehicle: saline 96 % of control | dose: 12.5 mg/kg/injection, schedule: Q01DX015 (ip), vehicle: saline 100 % of control | dose: 25.0 mg/kg/injection, schedule: Q01DX015 (ip), vehicle: saline 104 % of control | dose: 50.0 mg/kg/injection, schedule: Q01DX015 (ip), vehicle: saline 100 % of control | dose: 100.0 mg/kg/injection, schedule: Q01DX015 (ip), vehicle: saline 100 % of control | dose: 200.0 mg/kg/injection, schedule: Q01DX015 (ip), vehicle: saline 96 % of control | dose: 300.0 mg/kg/injection, schedule: Q01DX015 (ip), vehicle: saline 100 % of control
